Source: US11208400B2, “Substituted 6-(1H-pyrazol-1-yl)pyrimidin-4-amine derivatives and uses thereof” (Bayer Aktiengesellschaft, priority 2016, dated 2021)

Each compound was assayed against T1, human Npt2a (Homo sapiens, UniProt Q06495) (assay: Npt2a activity cell based assay, membrane potential dye, CHO T-REx hNpt2a cells). Settings: doxycycline-induced, depolarization by sodium phosphate influx, average or median values if tested more than once.
T1 construct: expressed in transfected cells
T1 sequence (Q06495 1-639): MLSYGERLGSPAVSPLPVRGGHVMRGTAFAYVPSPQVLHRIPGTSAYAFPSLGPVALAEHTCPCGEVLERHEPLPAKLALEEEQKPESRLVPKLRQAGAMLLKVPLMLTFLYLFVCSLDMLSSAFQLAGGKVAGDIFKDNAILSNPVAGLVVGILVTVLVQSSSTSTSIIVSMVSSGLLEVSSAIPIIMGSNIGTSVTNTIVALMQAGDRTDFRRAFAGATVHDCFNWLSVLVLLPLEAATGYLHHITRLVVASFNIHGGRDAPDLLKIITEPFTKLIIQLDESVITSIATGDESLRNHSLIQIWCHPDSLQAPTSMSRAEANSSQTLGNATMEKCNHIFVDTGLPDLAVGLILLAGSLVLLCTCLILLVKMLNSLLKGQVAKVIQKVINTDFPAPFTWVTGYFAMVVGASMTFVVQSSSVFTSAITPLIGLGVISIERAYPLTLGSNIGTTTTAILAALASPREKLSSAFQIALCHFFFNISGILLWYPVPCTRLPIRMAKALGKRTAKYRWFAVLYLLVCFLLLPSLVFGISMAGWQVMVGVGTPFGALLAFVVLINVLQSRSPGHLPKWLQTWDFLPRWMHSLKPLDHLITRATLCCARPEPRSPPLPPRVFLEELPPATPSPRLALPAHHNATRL
How it was run: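 Doxycycline-induced (0.5 μg/mL, 24 h) CHO T-REx cells were loaded with membrane potential dye in sodium-free NHE buffer (pH 7.4) and exposed to compound (50 μM–1 nM, 5 min, room temperature).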

| Structure (SMILES) | IC50 [nM] |
| --- | --- |
| CCc1c(-c2ccc(F)cc2)nn(CC2CC2)c1Nc1cc(-n2nc(C)c(C#N)c2C)ncn1 [Example 349, 1-(6-{[1-(cyclopropylmethyl)-4-ethyl-3-(4-fluorophenyl)-1H-pyrazol-5-yl]amino}pyrimidin-4-yl)-3,5-dimethyl-1H-pyrazole-4-carbonitrile] | 49 |
| CCc1c(Nc2cc(-n3nc(C)cc3C)ncn2)n[nH]c1-c1ccc(F)cc1C [Example 131, 6-(3,5-dimethyl-1H-pyrazol-1-yl)-N-[4-ethyl-5-(4-fluoro-2-methylphenyl)-1H-pyrazol-3-yl]pyrimidin-4-amine] | 1600 |
| CCOC(=O)c1cc(C)n(-c2cc(Nc3nn(C)c(-c4ccc(F)cc4)c3CC)ncn2)n1 [Example 83, ethyl 1-(6-{[4-ethyl-5-(4-fluorophenyl)-1-methyl-1H-pyrazol-3-yl]amino}pyrimidin-4-yl)-5-methyl-1H-pyrazole-3-carboxylate] | 1300 |
| Cc1cc(C)n(-c2cc(Nc3c(C)nn(-c4ccc(F)cc4)c3C)ncn2)n1 [Example 78, 6-(3,5-dimethyl-1H-pyrazol-1-yl)-N-[1-(4-fluorophenyl)-3,5-dimethyl-1H-pyrazol-4-yl]pyrimidin-4-amine] | 247 |
| CCc1c(-c2ccc(C#N)cc2)nn(CC2CC2)c1Nc1cc(-n2nc(C)c(Cl)c2C(F)F)ncn1 [Example 164, 4-[5-({6-[4-chloro-5-(difluoromethyl)-3-methyl-1H-pyrazol-1-yl]pyrimidin-4-yl}amino)-1-(cyclopropylmethyl)-4-ethyl-1H-pyrazol-3-yl]benzonitrile] | 11 |
| COc1c(Nc2cc(-n3nc(C)cc3C)ncn2)nn(C)c1-c1ccc(C#N)cc1 [Example 443, 4-(3-{[6-(3,5-dimethyl-1H-pyrazol-1-yl)pyrimidin-4-yl]amino}-4-methoxy-1-methyl-1H-pyrazol-5-yl)benzonitrile] | 11 |
| CCOC(=O)c1c(C)nn(-c2cc(Nc3c(Cl)c(-c4ccc(C#N)cc4)nn3CC3CC3)ncn2)c1C [Example 442, ethyl 1-(6-{[4-chloro-3-(4-cyanophenyl)-1-(cyclopropylmethyl)-1H-pyrazol-5-yl]amino}pyrimidin-4-yl)-3,5-dimethyl-1H-pyrazole-4-carboxylate] | 8 |
| COc1c(-c2ccc(C#N)cc2)nn(CC2CC2)c1Nc1cc(-n2nc(C)c(C(C)OC)c2C)ncn1 (racemic) [Example 333, (±)-4-{1-(cyclopropylmethyl)-4-methoxy-5-[(6-{4-[1-methoxyethyl]-3,5-dimethyl-1H-pyrazol-1-yl}pyrimidin-4-yl)amino]-1H-pyrazol-3-yl}benzonitrile] | 54 |
| Cc1nn(-c2cc(Nc3c(C)c(-c4ccc(F)cc4)nn3CC3CC3)ncn2)c(C)c1C(C)O (single isomer, unassigned) [Example 330, 1-[1-(6-{[1-(cyclopropylmethyl)-3-(4-fluorophenyl)-4-methyl-1H-pyrazol-5-yl]amino}pyrimidin-4-yl)-3,5-dimethyl-1H-pyrazol-4-yl]ethanol] | 22 |
| Cc1cc(C(F)F)n(-c2cc(Nc3c(C)nn(-c4ccc(F)cc4)c3C)ncn2)n1 [Example 93, 6-[5-(difluoromethyl)-3-methyl-1H-pyrazol-1-yl]-N-[1-(4-fluorophenyl)-3,5-dimethyl-1H-pyrazol-4-yl]pyrimidin-4-amine] | 29 |
| CCc1c(Nc2cc(-n3nc(C)cc3C(F)F)ncn2)nn(C)c1-c1ccc(F)cc1 [Example 64, 6-[5-(difluoromethyl)-3-methyl-1H-pyrazol-1-yl]-N-[4-ethyl-5-(4-fluorophenyl)-1-methyl-1H-pyrazol-3-yl]pyrimidin-4-amine] | 6.25 |
| CCC(O)c1c(C)nn(-c2cc(Nc3c(C)c(-c4ccc(F)cc4)nn3CC3CC3)ncn2)c1C (racemic) [Example 280, (±)-1-[1-(6-{[1-(cyclopropylmethyl)-3-(4-fluorophenyl)-4-methyl-1H-pyrazol-5-yl]amino}pyrimidin-4-yl)-3,5-dimethyl-1H-pyrazol-4-yl]propan-1-ol (Racemic)] | 16 |
| COc1c(C)nn(-c2cc(Nc3nn(C)c(-c4ccc(C#N)cc4)c3C)ncn2)c1C [Example 435, 4-(3-{[6-(4-methoxy-3,5-dimethyl-1H-pyrazol-1-yl)pyrimidin-4-yl]amino}-1,4-dimethyl-1H-pyrazol-5-yl)benzonitrile] | 5 |
| Cc1nn(-c2cc(Nc3n[nH]c(-c4ccccc4)c3Cl)ncn2)c(C)c1Cl [Example 54, 6-(4-chloro-3,5-dimethyl-1H-pyrazol-1-yl)-N-(4-chloro-5-phenyl-1H-pyrazol-3-yl)pyrimidin-4-amine] | 90.3 |
| Cc1cc(C)n(-c2cc(Nc3c(C)c(-c4ccc(C(F)F)cc4)nn3CC3CC3)ncn2)n1 [Example 305, N-{1-(cyclopropylmethyl)-3-[4-(difluoromethyl)phenyl]-4-methyl-1H-pyrazol-5-yl}-6-(3,5-dimethyl-1H-pyrazol-1-yl)pyrimidin-4-amine] | 27 |
| Cc1nn(-c2cc(Nc3c(C)c(-c4ccc(C#N)cc4)nn3CC3CC3)ncn2)c(C)c1C(C)O (racemic) [Example 341, (±)-4-{1-(cyclopropylmethyl)-5-[(6-{4-[1-hydroxyethyl]-3,5-dimethyl-1H-pyrazol-1-yl}pyrimidin-4-yl)amino]-4-methyl-1H-pyrazol-3-yl}benzonitrile] | 17 |
| COCCn1nc(-c2ccc(C#N)cc2)c(C)c1Nc1cc(-n2nc(C)cc2C(F)F)ncn1 [Example 554, 4-[5-({6-[5-(difluoromethyl)-3-methyl-1H-pyrazol-1-yl]pyrimidin-4-yl}amino)-1-(2-methoxyethyl)-4-methyl-1H-pyrazol-3-yl]benzonitrile] | 1.9 |
| CCc1c(Nc2cc(-n3ncc4c3CCC4)ncn2)n[nH]c1-c1ccc(F)cc1 [Example 27, 6-(5,6-dihydrocyclopenta[c]pyrazol-1 (4H)-yl)-N-[4-ethyl-5-(4-fluorophenyl)-1H-pyrazol-3-yl]pyrimidin-4-amine] | 460 |
| Cc1nn(-c2cc(Nc3c(C)c(-c4ccc(C#N)cc4)nn3C)ncn2)c(C)c1C(F)(F)F [Example 547, 4-[5-({6-[3,5-dimethyl-4-(trifluoromethyl)-1H-pyrazol-1-yl]pyrimidin-4-yl}amino)-1,4-dimethyl-1H-pyrazol-3-yl]benzonitrile] | 29 |
| Cc1nn(-c2cc(Nc3nn(C)c(-c4ccc(F)cc4)c3C)ncn2)c(C)c1C1(O)CC1 [Example 138, 1-[1-(6-{[5-(4-fluorophenyl)-1,4-dimethyl-1H-pyrazol-3-yl]amino}pyrimidin-4-yl)-3,5-dimethyl-1H-pyrazol-4-yl]cyclopropanol] | 150 |
| Cc1nn(-c2cc(Nc3c(C)c(-c4ccc(F)cc4)nn3CC3CC3)ncn2)c2c1C(C)(O)CC2 (racemic) [Example 283, (±)-1-(6-{[1-(cyclopropylmethyl)-3-(4-fluorophenyl)-4-methyl-1H-pyrazol-5-yl]amino}pyrimidin-4-yl)-3,4-dimethyl-1,4,5,6-tetrahydrocyclopenta[c]pyrazol-4-ol (Racemate)] | 21 |
| CCOC(=O)c1c(C)nn(-c2cc(Nc3c(OC)c(-c4ccc(F)cc4)nn3CC3CC3)ncn2)c1C [Example 319, ethyl 1-(6-{[1-(cyclopropylmethyl)-3-(4-fluorophenyl)-4-methoxy-1H-pyrazol-5-yl]amino}pyrimidin-4-yl)-3,5-dimethyl-1H-pyrazole-4-carboxylate] | 82 |
| CCc1c(Nc2cc(-n3nc(C)c(C)c3O)ncn2)nn(C)c1-c1ccc(F)cc1 [Example 25, 1-(6-{[4-ethyl-5-(4-fluorophenyl)-1-methyl-1H-pyrazol-3-yl]amino}pyrimidin-4-yl)-3,4-dimethyl-1H-pyrazol-5-ol] | 1070 |
| Cc1nn(-c2cc(Nc3c(Cl)c(-c4ccc(F)cc4)nn3CC3CC3)ncn2)c(C)c1Cl [Example 185, N-[4-chloro-1-(cyclopropylmethyl)-3-(4-fluorophenyl)-1H-pyrazol-5-yl]-6-(4-chloro-3,5-dimethyl-1H-pyrazol-1-yl)pyrimidin-4-amine] | 27 |
| Cc1nn(-c2cc(Nc3c(C)c(-c4ccc(C#N)cc4)nn3C)ncn2)c2c1C(=O)CC2 [Example 211, 4-(1,4-dimethyl-5-{[6-(3-methyl-4-oxo-5,6-dihydrocyclopenta[c]pyrazol-1(4H)-yl)pyrimidin-4-yl]amino}-1H-pyrazol-3-yl)benzonitrile] | 200 |
| Cc1cc(C(C)(C)O)n(-c2cc(Nc3c(C)c(-c4ccc(C(F)(F)F)cc4)nn3CC3CC3)ncn2)n1 [Example 293, 2-{1-[6-({1-(cyclopropylmethyl)-4-methyl-3-[4-(trifluoromethyl)phenyl]-1H-pyrazol-5-yl}amino)pyrimidin-4-yl]-3-methyl-1H-pyrazol-5-yl}propan-2-ol] | 570 |
| Cc1nn(-c2cc(Nc3c(C)c(-c4ccc(F)cn4)nn3CC3CC3)ncn2)c(C)c1Cl [Example 439, 6-(4-chloro-3,5-dimethyl-1H-pyrazol-1-yl)-N-[1-(cyclopropylmethyl)-3-(5-fluoropyridin-2-yl)-4-methyl-1H-pyrazol-5-yl]pyrimidin-4-amine] | 39 |
